According to patent publication US9670204B2, “Compounds and pharmaceutical compositions thereof for the treatment of inflammatory disorders” (Galapagos NV, priority 2013, dated 2017):

How the values were obtained:
hENPP2 [1] = target: T1, hENPP2 (UniProtKB/SwissProt Q13822) (Homo sapiens (Human), UniProt Q13822); experiment: hENPP2 biochemical assay, LPC as substrate; conditions: LPC (palmitoyl 16:0) as substrate
Method in brief: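 Human ENPP2 in 50 mM Tris-HCl pH 8.5, 500 mM NaCl, 5 mM KCl, 10 mM CaCl2, 0.1% fatty-acid-free BSA, reacted 30 min at 37 °C with LPC 16:0 (150 µM solution added 1:1). Released choline measured via choline oxidase/peroxidase/TOOS/4-aminoantipyrine quinoneimine dye at 555 nm; IC50 reported.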

hENPP2 [2] = target: T1, hENPP2; experiment: fluorescent hENPP2 biochemical assay, FS-3 as substrate; conditions: read-out: FS3-IC50
Method in brief: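 IC50 values come from fluorescence gained as FS-3 is hydrolysed (ex 485, em 520 nm). The reaction, started by adding 0.75 μM FS-3 solution, runs 30 min at 30° C after a 30 min room-temperature preincubation of compound with enzyme. Buffer: Tris-HCl pH 8.0 with NaCl, KCl, MgCl2, CaCl2 and 0.1% BSA.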

SMILES	IC50 (hENPP2 [1])	IC50 (hENPP2 [2])
CCc1nc2ccc(N3CCN(CC(=O)N(C)C)CC3)cn2c1N(C)c1nc(-c2ccc(F)cc2)c(C(=O)C(F)(F)F)s1 [Compound 158, 2-(4-(2-ethyl-3-((4-(4-fluorophenyl)-5-(2,2,2-trifluoroacetoyl)thiazol-2-yl)(methyl)amino)imidazo[1,2-a]pyridin-6-yl)piperazin-1-yl)-N,N-dimethylacetamide]	100 to 500 nM	0.01 to 100 nM
CCc1nc2ccc(N3CCN(CC(=O)N(C)C)CC3)cn2c1N(C)c1nc(-c2ccc(F)cc2C#N)cs1 [Compound 168, 2-(4-(3-((4-(2-cyano-4-fluorophenyl)thiazol-2-yl)(methyl)amino)-2-ethylimidazo[1,2-a]pyridin-6-yl)piperazin-1-yl)-N,N-dimethylacetamide]	0.01 to 100 nM	0.01 to 100 nM
CCc1nc2ccc(C3CCN(CC(=O)N4CC(O)C4)CC3)cn2c1N(C)c1nc(-c2ccc(F)cc2C#N)c(C)s1 [Compound 172, 2-(2-((2-ethyl-6-(1-(2-(3-hydroxyazetidin-1-yl)-2-oxoethyl)piperidin-4-yl)imidazo[1,2-a]pyridin-3-yl)(methyl)amino)-5-methylthiazol-4-yl)-5-fluorobenzonitrile]	100 to 500 nM	0.01 to 100 nM
CCc1nc2ccc(N3CC(NC(=O)CN4CC(O)C4)C3)cn2c1N(C)c1nc(-c2ccc(F)cc2)cs1 [Compound 179, N-(1-(2-ethyl-3-((4-(4-fluorophenyl)thiazol-2-yl)(methyl)amino)imidazo[1,2-a]pyridin-6-yl)azetidin-3-yl)-2-(3-hydroxyazetidin-1-yl)acetamide]	> 1000 nM	0.01 to 100 nM
CCc1nc2ccc(N3CCNC3=O)cn2c1N(C)c1nc(-c2ccc(Cl)cc2)cs1 [Compound 183, 1-(3-((4-(4-chlorophenyl)thiazol-2-yl)(methyl)amino)-2-ethylimidazo[1,2-a]pyridin-6-yl)imidazolidin-2-one]	> 1000 nM	0.01 to 100 nM
CCOC(=O)CN1CCN(c2ccc3nc(CC)c(N(C)c4nc(-c5ccc(Cl)cc5)cs4)n3c2)C1=O [Compound 184, ethyl 2-(3-(3-((4-(4-chlorophenyl)thiazol-2-yl)(methyl)amino)-2-ethylimidazo[1,2-a]pyridin-6-yl)-2-oxoimidazolidin-1-yl)acetate]	> 1000 nM	0.01 to 100 nM
CN(c1nc(-c2ccc(Cl)cc2)cs1)c1c(CC(F)(F)F)nc2ccc(C3=CCN(S(C)(=O)=O)CC3)cn12 [Compound 185, 4-(4-chlorophenyl)-N-methyl-N-(6-(1-(methylsulfonyl)-1,2,3,6-tetrahydropyridin-4-yl)-2-(2,2,2-tetrahydropyridin-4-yl)-2-(2,2,2-trifluoroethyl)imidazo [1,2-a]pyridin-3-yl) thiazol-2-amine]	> 1000 nM	0.01 to 100 nM
CCc1nc2ccc(C3CCN(S(C)(=O)=O)CC3)cn2c1N(C)c1nc(-c2ccc(F)cc2)c(CC#N)s1 [Compound 186, 2-(2-((2-ethyl-6-(1-(methylsulfonyl)piperidin-4-yl)imidazo[1,2-a]pyridin-3-yl)(methyl)amino)-4-(4-fluorophenyl)thiazol-5-yl)acetonitrile]	> 1000 nM	0.01 to 100 nM
CCc1nc2ccc(C3=CCN(S(C)(=O)=O)CC3)cn2c1N(C)c1nc(-c2ccc(F)cc2)no1 [Compound 189, N-(2-ethyl-6-(1-(methylsulfonyl)-1,2,3,6-tetrahydropyridin-4-yl)imidazo[1,2-a]pyridin-3-yl)-3-(4-fluorophenyl)-N-methyl-1,2,4-oxadiazol-5-amine]	> 1000 nM	0.01 to 100 nM
CCc1nc2ccc(C3CCN(CC(=O)N(C)C)CC3)cn2c1N(C)c1nc(-c2ccc(F)cc2)ns1 [Compound 191, 2-(4-(2-ethyl-3-((3-(4-fluorophenyl)-1,2,4-thiadiazol-5-yl)(methyl)amino)imidazo[1,2-a]pyridin-6-yl)piperidin-1-yl)-N,N-dimethylacetamide]	> 1000 nM	0.01 to 100 nM
CCc1nc2ccc(C3CCN(CC(=O)NC4CC4)CC3)cn2c1N(C)c1nc(-c2ccc(F)cc2)cs1 [Compound 194, N-cyclopropyl-2-(4-(2-ethyl-3-((4-(4-fluorophenyl)thiazol-2-yl)(methyl)amino)imidazo[1,2-a]pyridin-6-yl)piperidin-1-yl)acetamide]	> 1000 nM	0.01 to 100 nM
CCc1nc2ccc(C3=CCN(S(C)(=O)=O)CC3)cn2c1N(C)c1nc(-c2ccc(F)cc2)ns1 [Compound 199, N-(2-ethyl-6-(1-(methylsulfonyl)-1,2,3,6-tetrahydropyridin-4-yl)imidazo[1,2-a]pyridin-3-yl)-3-(4-fluorophenyl)-N-methyl-1,2,4-thiadiazol-5-amine]	> 1000 nM	100 to 500 nM
CCc1nc2ccc(N3CCN(C(=O)C(C)=O)CC3)cn2c1N(C)c1nc(-c2ccc(F)cc2)cs1 [Compound 200, 1-(4-(2-ethyl-3-((4-(4-fluorophenyl)thiazol-2-yl)(methyl)amino)imidazo[1,2-a]pyridin-6-yl)piperazin-1-yl)propane-1,2-dione]	> 1000 nM	0.01 to 100 nM
CCc1nc2ccc(N3CCN(C(=O)C4CCC(=O)N4)CC3)cn2c1N(C)c1nc(-c2ccc(F)cc2)cs1 (centres unmarked) [Compound 201, 5-(4-(2-ethyl-3-((4-(4-fluorophenyl)thiazol-2-yl)(methyl)amino)imidazo[1,2-a]pyridin-6-yl)piperazine-1-carbonyl)pyrrolidin-2-one]	> 1000 nM	0.01 to 100 nM
CCc1nc2ccc(N3CCN(C(=O)C(N)=O)CC3)cn2c1N(C)c1nc(-c2ccc(F)cc2)cs1 [Compound 204, 2-(4-(2-ethyl-3-((4-(4-fluorophenyl)thiazol-2-yl)(methyl)amino)imidazo[1,2-a]pyridin-6-yl)piperazin-1-yl)-2-oxoacetamide]	> 1000 nM	0.01 to 100 nM
CCc1nc2ccc(N3CCCCS3(=O)=O)cn2c1N(C)c1nc(-c2ccc(Cl)cc2)cs1 [Compound 207, 2-(2-ethyl-4-((4-(4-chlorophenyl)thiazol-2-yl)(methyl)amino)imidazo[1,2-a]pyridin-6-yl)-1-[1,2]thiazinane-1,1-dioxide]	> 1000 nM	0.01 to 100 nM
CCc1nc2ccc(C3=CCN(C(=O)Nc4cccs4)CC3)cn2c1N(C)c1nc(-c2ccc(F)cc2)cs1 [Compound 208, 4-(2-ethyl-3-((4-(4-fluorophenyl)thiazol-2-yl)(methyl)amino)imidazo[1,2-a]pyridin-6-yl)-N-(thiophen-2-yl)-5,6-dihydropyridine-1(2H)-carboxamide]	> 1000 nM	0.01 to 100 nM
CCc1nc2ccc(C3=CCN(S(C)(=O)=O)CC3)cn2c1N(C)c1nc(-c2ccc(Cl)cc2)cs1 [Compound 209, 4-(4-chlorophenyl)-N-(2-ethyl-6-(1-(methylsulfonyl)-1,2,3,6-tetrahydropyridin-4-yl)imidazo[1,2-a]pyridin-3-yl)-N-methylthiazol-2-amine]	> 1000 nM	0.01 to 100 nM
CCc1nc2ccc(C3=CCN(S(=O)(=O)C(F)(F)F)CC3)cn2c1N(C)c1nc(-c2ccc(Cl)cc2)cs1 [Compound 210, 4-(4-chlorophenyl)-N-(2-ethyl-6-(1-(trifluoromethylsulfonyl)-1,2,3,6-tetrahydropyridin-4-yl)imidazo[1,2-a]pyridin-3-yl)-N-methylthiazol-2-amine]	> 1000 nM	0.01 to 100 nM
